Test results as given in PubChem BioAssay (NCI).
Where “and” joins values, the source holds several entries; their conditions need not be identical. Identical values can stand only once.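 Five compound concentrations were applied to cells in 96-well plates for 48 hours; endpoints were derived by simple linear interpolation of the resulting dose-response curve. Definition used: TGI = concentration required for complete inhibition of growth.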

Tests used:
Test in all cases: growth of human tumour cells (NCI), 48 h
OVCAR-8 ovarian = test system: OVCAR-8 ovarian
KM12 colon = test system: KM12 colon
MALME-3M melanoma = test system: MALME-3M melanoma
SNB-19 CNS = test system: SNB-19 CNS
HCT-116 colon = test system: HCT-116 colon
A549 NSCLC = test system: A549 NSCLC
NCI/ADR-RES ovarian = test system: NCI/ADR-RES ovarian
SK-MEL-28 melanoma = test system: SK-MEL-28 melanoma
NCI-H522 lung = test system: NCI-H522 lung
TK-10 renal = test system: TK-10 renal
T-47D breast = test system: T-47D breast
M14 melanoma = test system: M14 melanoma
SNB-75 CNS = test system: SNB-75 CNS
PC-3 prostate = test system: PC-3 prostate
HCC-2998 colon = test system: HCC-2998 colon
BT-549 breast = test system: BT-549 breast
SK-OV-3 ovarian = test system: SK-OV-3 ovarian
NCI-H460 lung = test system: NCI-H460 lung
SK-MEL-5 melanoma = test system: SK-MEL-5 melanoma
K-562 leukemia = test system: K-562 leukemia

Structure (SMILES) | TGI (OVCAR-8 ovarian) | TGI (KM12 colon) | TGI (MALME-3M melanoma) | TGI (SNB-19 CNS) | TGI (HCT-116 colon) | TGI (A549 NSCLC) | TGI (NCI/ADR-RES ovarian) | TGI (SK-MEL-28 melanoma) | TGI (NCI-H522 lung) | TGI (TK-10 renal) | TGI (T-47D breast) | TGI (M14 melanoma) | TGI (SNB-75 CNS) | TGI (PC-3 prostate) | TGI (HCC-2998 colon) | TGI (BT-549 breast) [µM] | TGI (SK-OV-3 ovarian) | TGI (NCI-H460 lung) | TGI (SK-MEL-5 melanoma) | TGI (K-562 leukemia)
CC1OC(OC2C(OC(=O)[C@]34CCC(C)(C)C[C@H]3C3=CC[C@@H]5[C@@]6(C)CC[C@H](OC7OC(CO)C(O)C(O)C7OC7OC(CO)C(O)C(O)C7O)C(C)(C)[C@@H]6CC[C@@]5(C)[C@]3(C)CC4)OCC(O)C2O)C(O)C(O)C1OC1OCC(O)C(OC2OCC(O)C(O)C2O)C1O (stereo not given in full) | 26.9 µM and 21.7 µM | 11.8 µM and 12.5 µM | 6.6 µM and 7.27 µM | 20.8 µM and 20.5 µM | 16.7 µM and 14 µM | 10.2 µM and 9.72 µM | 18.1 µM and 16.2 µM | 3.9 µM and 3.82 µM | 7.68 µM and 6.53 µM | 21.1 µM and 21.8 µM | 21.8 µM and 16.6 µM | 3.98 µM and 3.49 µM | 17 µM and 20.8 µM | 17.8 µM and 19.1 µM | 3.75 µM and 3.4 µM | 10.8 | 25.6 µM and 26.5 µM | 31.9 µM and 40.5 µM | 8.11 µM and 10.3 µM | 18.8 µM and 17.6 µM
O=[N+]([O-])c1ccc(C2=NOC(c3ccc(Cl)cc3)N2C23CC4CC(CC(C4)C2)C3)cc1 (stereo not given) | > 100 µM | > 100 µM | > 100 µM | > 100 µM | > 100 µM | > 100 µM | > 100 µM | > 100 µM | > 100 µM | > 100 µM | > 100 µM | > 100 µM | > 100 µM | > 100 µM | > 100 µM | > 100 | > 100 µM | > 100 µM | > 100 µM | > 100 µM
COc1ccc(NC(=O)CC(=O)NNC(Sc2ccccc2)c2cc(N=Nc3ccc(Br)cc3)ccc2O)cc1 (stereo not given) | > 10 µM | > 10 µM | > 10 µM | > 10 µM | > 10 µM | > 10 µM | > 10 µM | > 10 µM | > 10 µM | > 10 µM | > 10 µM | > 10 µM | > 10 µM | > 10 µM | > 10 µM | > 10 | > 10 µM | > 10 µM | > 10 µM | > 10 µM
O=C(CC(c1ccccc1)C1C(=O)NC(=S)NC1=O)c1ccc([N+](=O)[O-])cc1 (stereo not given) | > 100 µM | > 100 µM | > 100 µM | > 100 µM | > 100 µM | > 100 µM | > 100 µM | > 100 µM | > 100 µM | > 100 µM | > 100 µM | > 100 µM | > 100 µM | > 100 µM | > 100 µM | > 100 | > 100 µM | > 100 µM | > 100 µM | > 100 µM
CN=C(N)N=Nc1c(O)[nH]c2ccccc12 | > 100 µM | > 100 µM | > 100 µM | > 100 µM | > 100 µM | > 100 µM | > 100 µM | > 100 µM | > 100 µM | > 100 µM | > 100 µM | > 100 µM | > 100 µM | > 100 µM | > 100 µM | > 100 | > 100 µM | > 100 µM | > 100 µM | > 100 µM
O=C(/C=C1\N=C(c2ccccc2)N(c2nc3c(Cl)cc(Cl)cc3s2)C1=O)/C=C/c1ccccc1 | > 100 µM | > 100 µM | > 100 µM | > 100 µM | > 100 µM | > 100 µM | > 100 µM | > 100 µM | > 100 µM | > 100 µM | > 100 µM | > 100 µM | > 100 µM | > 100 µM | > 100 µM | > 100 | > 100 µM | > 100 µM | > 100 µM | > 100 µM
